We go through three compounds from patent US20180271863A1, “TARGETING P2 PURINERGIC RECEPTORS TO TREAT HEPATOCELLULAR CARCINOMA (HCC)” (Baylor College of Medicine, priority 2015, published 2018).

Entries after “also recorded” stand apart in the source; their conditions may differ.

Holding throughout (assay type): cell-based, human
Test [1] concerns Huh7 cells. Kind of test: Western blotting of cyclin and CDK proteins in Huh7 cells. The procedure: (§1) Normal human primary hepatocytes isolated from healthy adults (no known history of HCC) in suspension or freshly-frozen prior to shipment (Cryoport Systems, CA) were purchased from Triangle Research Labs, NC. Fresh hepatocytes were plated on collagen-coated tissue culture plates or glass coverslips in Williams E complete media with additives (10% fetal bovine serum, 2 mM glutamine, […] insulin, 4 ng/ml glucagon, […] transferrin, 2.5 ng/ml sodium selenite, 10,000 U/ml penicillin, […] streptomycin, 50 g/ml gentamycin) for 3 h to ensure hepatocyte adherence to plates. Subsequently, hepatocytes were maintained in Williams E minimal media free from serum and growth factors for 24 h prior to treatment. Human hepatocellular carcinoma derived Huh7, and Hep3B, were cultured in Minimum Essential Medium Eagle (MEM); SNU-387 was cultured in Roswell Park Memorial Institute (RPMI) medium and PLC/PRF/5 cultured in Dulbecco's Modified Eagle's medium (DMEM). All maintenance culture media were supplemented with 10% fetal bovine serum (FBS), L-Glutamine (2 mM), penicillin (100 units/ml) and streptomycin ([…]) at 37° C. and 5% CO2. Cells were maintained in serum free media (containing 2 mM L-Glutamine, 100 units/ml penicillin and ([…])) streptomycin for 24 h prior to treatment.
Total protein extracts were obtained by homogenizing cells in total lysis buffer (50 mM Tris-HCl, pH 7.5, 0.5 M NaCl, 2 mM EGTA, 2 mM EDTA, 1.0% Triton X-100, 0.25% Deoxycholate, 1 m/ml pepstatin, 1.0 m/ml leupeptin, 1.0 m/ml aprotinin, 1.0 mM phenylmethylsulfonyl fluoride, 1.0 mM Dithiothreitol, 2.0 mM activated Na3VO4, and 2.0 mM NaF) and centrifuging at 14,000 rpm for 10 min (4° C.). Equal amounts of total proteins as determined by BCA protein Assay (Pierce, Rockford, Ill.) were analyzed by Western blotting. Blots were probed with antibody specific for a-tubulin or GAPDH to ensure equal loading of proteins in each lane.

Test [2] deals with Huh7 cells. The experiment in a line: Western blotting of Huh7 nuclear fractions for YAP. To be noted: 24 h treatment. An excerpt: (§2) Total protein extracts were obtained by homogenizing cells in total lysis buffer and analyzed by Western blotting as described recently (Oncotarget 2015; 6:41162-41179). Hippo kinases Mst1/2 and Lats1/2 work through a phosphorylation cascade to phosphorylate Yap, thereby retaining Yap in the cytoplasm. In spite of nucleotide-mediated Mst1/2 and Lats phosphorylation, ATP, ADP and ATPγS treatment was individually insufficient to induce Yap phosphorylation. […] Similarly, ATP treatment alone increased nuclear YAP protein expression (1.7 fold) (FIG. 20D).
For orientation: A western blot detects proteins with antibodies after separation by electrophoresis.

In test [3] the test system is Huh7 cells. Kind of test: Western blotting for hippo pathway phosphorylation (Mst1/2, LATS, Yap) in Huh7 cells. The settings on record: for Mst1/2 phosphorylation: Huh7, serum free 24 hours, as early as 5 minutes, sustained at 4 hours; for induction of Yap phosphorylation: Huh7, 12 h treatment. The procedure:
as §2, with “6:41162-41179). […] Therefore, Applicants performed in vitro studies to test whether activation of P2 purinergic receptors may affect the hippo pathway and its downstream effectors. Huh7 cells—human derived hepatocellular carcinoma cells—maintained in serum free media for 24 hours—were treated with P2 purinergic receptor agonists. […] ADP treatment alone was also sufficient to induce LATs phosphorylation (2 h-1.7 fold, 4 h-1.5 fold) (FIG. 20B). […]” for “6:41162-41179).”

Test [4] deals with Huh7 cells. Kind of test: qRT-PCR of YAP target genes in Huh7 cells. The settings on record: 24 h treatment. An excerpt: Total RNA was isolated from human livers or cells and was amplified by qRT-PCR as described recently (Oncotarget 2015; 6:41162-41179). Next, Applicants tested whether extracellular nucleotide treatment may have an effect on YAP target genes important in hepatocellular carcinoma. […] Moreover, P2X3 antagonist (AF-353) pretreatment attenuated ATP mediated induction of survivin (FIG. 20G).

In test [5] the test system is Huh7 cells. Kind of test: BrdU incorporation (proliferation) in Huh7 cells. To be noted: for BrdU incorporation / BrdU positive nuclei: nucleotide 100 μM. The procedure:
To determine whether P2 purinergic receptor activation influences HCC cell proliferation, BrdU incorporation was assessed in HCC cells maintained in SFM for 24 hours and treated with ATP for 24 hours. ATP treatment alone was sufficient to induce proliferation in each of these cell lines (Huh7, 34%; Hep3B, 46%; SNU-387, 47% and PLC/PRF/5, 24%), identifying nucleotides as liver cancer cell mitogens (FIG. 7A).
Extracellular ATP can be hydrolyzed to ADP and adenosine by ectonucleotidases at the plasma membrane. Therefore, Applicants tested the effects of ATPγS (non-hydrolyzable analog of ATP) or ADP (break down product of ATP) (100 μM) on Huh7 cell proliferation. ATPγS treatment alone was sufficient to induce BrdU incorporation as early as 12 hours (42%); maintained at 18 h (30%) and 24 h (29%) in Huh7 cells (FIG. 8). ADP was also able to independently increase the number of BrdU positive nuclei (12 h, 30%; 18 h, 35%; 24 h, 37%) (FIG. 8). Furthermore, ATP treatment (18 h) increased cell proliferation and viability in all four cell lines, as determined by MTT assay (Huh7, 65%; Hep3B, 81%; SNU-387, 90% and PLC/PRF/5, 43%) (FIG. 7B).
as §1
Formalin-fixed and paraffin embedded liver sections from HCC patients were analyzed by immunohistochemistry with anti-P2X3 antibody (Abcam, Cambridge, Mass.). HCC cells were grown on glass coverslips; BrdU (10 μM, Roche, Indianapolis, Ind.) was added to culture media for 1 h prior to fixation (cold acetone:methanol, 1:1) and stained using anti-BrdU antibody (DAKO, Carpinteria, Calif.) and DAB Peroxidase Substrate Kit (Vector Labs, Burlingame, Calif.), according to manufacturer's instructions. Counterstaining was done with hematoxylin. BrdU positive cells were counted and expressed as a percentage of the total number of cells in ten randomly selected high-power fields (20×) per coverslips.
(Dividing cells build labelled thymidine or BrdU into new DNA.)

The mark [6] stands for this setting: antagonist alone, serum-free conditions.

Turning to `Nc1ncnc2c1ncn2[C@@H]1O[C@H](COP(=O)(O)OP(=O)(O)OP(=O)(O)O)[C@@H](O)[C@H]1O` [ATP], the “cyclin D3 protein expression” value in test [1] (ATP 24 hours, serum-free) was 3.2 fold. Further, the “nuclear YAP protein expression compared to untreated cells” value in test [2] was found to be 1.7 fold. Besides, in test [3], the Mst1/2 phosphorylation entry is “significantly induced” and the “induction of Yap phosphorylation” value is recorded as “insufficient”. In test [4], the AREG gene expression is listed as 5.1 fold, the CTGF gene expression turned out to be 3.4 fold, the Sox9 gene expression worked out at 2.0 fold and the “cyclin E gene expression” value came out at 2.1 fold. Also, the survivin gene expression in test [4] turned out to be 1.1 fold. Further, the “proliferation (BrdU incorporation) induced by ATP” value in test [5] (SFM 24 hours, ATP 24 hours) is listed as 34%.
Take `Nc1ncnc2c1ncn2[C@@H]1O[C@H](COP(=O)(O)OP(=O)(O)OP(O)(O)=S)[C@@H](O)[C@H]1O` [ATPγS]: in test [1] (ATPγS 18 h), the “cyclin A protein expression” value is recorded as 1.7 fold, the “cyclin D3 protein expression” value is reported as 2.7 fold and the “cyclin E protein expression” value is recorded as 1.7 fold. Also, in test [1] (ATPγS 24 h), the “cyclin A protein expression” value is reported as 1.2 fold, the “cyclin D3 protein expression” value is 2.8 fold and the “cyclin E protein expression” value amounted to 1.3 fold. For the same compound, in test [1] (ATPγS 30 h), the CDK2 protein expression was determined as 1.6 fold, the CDK4 protein expression is on record as 1.4 fold, the “cyclin A protein expression” value worked out at 1.2 fold and the “cyclin D3 protein expression” value turned out to be 2.1 fold. The “cyclin E protein expression” value in test [1] (ATPγS 30 h) was 2.2 fold. In test [2], the “nuclear YAP protein expression compared to untreated cells” value is given as 2.8 fold. Moreover, in test [3], the Mst1/2 phosphorylation entry is “significantly induced” and the “induction of Yap phosphorylation” value is “insufficient”. In test [4], the AREG gene expression amounted to 3.3 fold, the CTGF gene expression was found to be 2.2 fold, the Sox9 gene expression is recorded as 1.6 fold and the “cyclin E gene expression” value was determined as 2.0 fold. Further, the survivin gene expression in test [4] came out at 1.1 fold. In test [5] (12 h), the “BrdU incorporation / BrdU positive nuclei” value came out at 42%. Moreover, the “BrdU incorporation / BrdU positive nuclei” value in test [5] (18 h) stood at 30%. Besides, the “BrdU incorporation / BrdU positive nuclei” value in test [5] (24 h) is 29%.
Regarding `COc1cc(C(C)C)c(Oc2cnc(N)nc2N)cc1I` [AF-353], the “effect on ATP-mediated induction of cyclin D3 and cyclin E expression” value in test [1] (AF-353 5 μM pre-treatment, ATP 24 h) is recorded as “completely attenuated”. Further, the “effect on baseline cyclin protein expression” value in test [1] (setting [6]) is given as “reduce”. The “effect on ATP-mediated increase in BrdU incorporation” value in test [5] (AF-353 5 μM pre-treatment, ATP 100 μM 24 hr) is given as “completely abolished; also recorded: attenuates”. The “effect on baseline BrdU-positive cells” value in test [5] (setting [6]) was “reduce”.
